Tests used:
Test in all cases: relative viability (nuclei count vs DMSO), 5 days (fraction); higher = more cells survive
NCI-H1703 = tested on: NCI-H1703
In short: (§1)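 Medians of duplicate plates are given as relative viability. That measure is the nuclei count in treated wells divided by the count in vehicle wells. Counts were taken on 4× images of lung cancer cell lines in 1536-well plates, 5 days after pin-tool dosing the day after seeding with one drug alone or a fixed anchor-drug dose plus five library-drug doses (not always all listed) in √10 steps.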

NCI-H522 = tested on: NCI-H522
In short: as §1

NCI-H1648 = tested on: NCI-H1648
In short: as §1

NCI-H2342 = tested on: NCI-H2342
In short: as §1

SW 900 = tested on: SW 900
In short: as §1

EBC-1 = tested on: EBC-1
In short: as §1

A549 = tested on: A549
In short: as §1

NCI-H1299 = tested on: NCI-H1299
In short: as §1

IA-LM = tested on: IA-LM
In short: as §1

Calu-6 = tested on: Calu-6
In short: as §1

NCI-H1563 = tested on: NCI-H1563
In short: as §1

NCI-H1623 = tested on: NCI-H1623
In short: as §1

O=C(O)CCCCC(CCSCc1ccccc1)SCc1ccccc1 (stereo not given) [CPI-613] + NC(=O)Nc1cc(-c2cccc(F)c2)sc1C(=O)N[C@H]1CCCNC1 [AZD7762] (partner 0.2 µM)
relative viability (NCI-H1703; first compound 5 µM): 0.133
relative viability (NCI-H1703; first compound 15.81 µM): 0.12
relative viability (NCI-H1703; first compound 50 µM): 0.134
relative viability (NCI-H1703; first compound 158.11 µM): 0.118
relative viability (NCI-H1703; first compound 500 µM): 0.12
relative viability (NCI-H522; first compound 5 µM): 0.899
relative viability (NCI-H522; first compound 15.81 µM): 0.887
relative viability (NCI-H522; first compound 50 µM): 0.953
relative viability (NCI-H522; first compound 158.11 µM): 0.631
relative viability (NCI-H522; first compound 500 µM): 0.563
relative viability (NCI-H1648; first compound 5 µM): 0.622
relative viability (NCI-H1648; first compound 15.81 µM): 0.701
relative viability (NCI-H1648; first compound 50 µM): 0.645
relative viability (NCI-H1648; first compound 158.11 µM): 0.626
relative viability (NCI-H1648; first compound 500 µM): 0.665
relative viability (NCI-H2342; first compound 5 µM): 0.489
relative viability (NCI-H2342; first compound 15.81 µM): 0.454
relative viability (NCI-H2342; first compound 50 µM): 0.437
relative viability (NCI-H2342; first compound 158.11 µM): 0.522
relative viability (NCI-H2342; first compound 500 µM): 0.576
relative viability (SW 900; first compound 5 µM): 0.685
relative viability (SW 900; first compound 50 µM): 0.692
relative viability (SW 900; first compound 158.11 µM): 0.273
relative viability (SW 900; first compound 500 µM): 0.0039

O=C(O)CCCCC(CCSCc1ccccc1)SCc1ccccc1 (stereo not given) [CPI-613] + O=C(c1cc(Cc2n[nH]c(=O)c3ccccc23)ccc1F)N1CCN(C(=O)C2CC2)CC1 [Olaparib] (partner 8 µM)
relative viability (NCI-H1703; first compound 5 µM): 0.411
relative viability (NCI-H1703; first compound 15.81 µM): 0.453
relative viability (NCI-H1703; first compound 50 µM): 0.499
relative viability (NCI-H1703; first compound 158.11 µM): 0.36
relative viability (NCI-H1703; first compound 500 µM): 0.403
relative viability (EBC-1; first compound 5 µM): 0.698
relative viability (EBC-1; first compound 15.81 µM): 0.33
relative viability (EBC-1; first compound 50 µM): 0.589
relative viability (EBC-1; first compound 158.11 µM): 0.512
relative viability (EBC-1; first compound 500 µM): 0.49
relative viability (NCI-H522; first compound 5 µM): 0.589
relative viability (NCI-H522; first compound 15.81 µM): 0.533
relative viability (NCI-H522; first compound 50 µM): 0.681
relative viability (NCI-H522; first compound 158.11 µM): 0.453
relative viability (NCI-H522; first compound 500 µM): 0.346
relative viability (A549; first compound 5 µM): 0.301
relative viability (A549; first compound 15.81 µM): 0.371
relative viability (A549; first compound 50 µM): 0.301
relative viability (A549; first compound 158.11 µM): 0.335
relative viability (A549; first compound 500 µM): 0.327
relative viability (NCI-H1299; first compound 5 µM): 0.942
relative viability (NCI-H1299; first compound 15.81 µM): 1.01
relative viability (NCI-H1299; first compound 50 µM): 0.903
relative viability (NCI-H1299; first compound 158.11 µM): 0.909
relative viability (NCI-H1299; first compound 500 µM): 0.968
relative viability (NCI-H1648; first compound 5 µM): 0.878
relative viability (NCI-H1648; first compound 15.81 µM): 0.976
relative viability (NCI-H1648; first compound 50 µM): 1.01
relative viability (NCI-H1648; first compound 158.11 µM): 0.255
relative viability (NCI-H1648; first compound 500 µM): 0.0437
relative viability (NCI-H2342; first compound 5 µM): 0.472
relative viability (NCI-H2342; first compound 15.81 µM): 0.432
relative viability (NCI-H2342; first compound 50 µM): 0.5
relative viability (NCI-H2342; first compound 158.11 µM): 0.461
relative viability (NCI-H2342; first compound 500 µM): 0.412
relative viability (IA-LM; first compound 5 µM): 0.881
relative viability (IA-LM; first compound 15.81 µM): 0.751
relative viability (IA-LM; first compound 50 µM): 0.866
relative viability (IA-LM; first compound 158.11 µM): 0.537
relative viability (IA-LM; first compound 500 µM): 0.656
relative viability (SW 900; first compound 5 µM): 0.873
relative viability (SW 900; first compound 50 µM): 0.823
relative viability (SW 900; first compound 158.11 µM): 0.33
relative viability (SW 900; first compound 500 µM): 0.0124
relative viability (Calu-6; first compound 5 µM): 0.525
relative viability (Calu-6; first compound 50 µM): 0.521
relative viability (Calu-6; first compound 158.11 µM): 0.433
relative viability (Calu-6; first compound 500 µM): 0.401

O=c1[nH]c2ccccc2n1C1CCN(CCCC(c2ccc(F)cc2)c2ccc(F)cc2)CC1 [Pimozide] + CCNC(=O)c1noc(-c2cc(C(C)C)c(O)cc2O)c1-c1ccc(CN2CCOCC2)cc1 [Luminespib] (partner 0.01 µM)
relative viability (NCI-H1563; first compound 0.08 µM): 0.511
relative viability (NCI-H1563; first compound 0.253 µM): 0.513
relative viability (NCI-H1563; first compound 0.8 µM): 0.516
relative viability (NCI-H1563; first compound 2.53 µM): 0.549
relative viability (NCI-H1563; first compound 8 µM): 0.496
relative viability (NCI-H522; first compound 0.08 µM): 1.01
relative viability (NCI-H522; first compound 0.253 µM): 1.08
relative viability (NCI-H522; first compound 0.8 µM): 1.21
relative viability (NCI-H522; first compound 2.53 µM): 1.21
relative viability (NCI-H522; first compound 8 µM): 1.24
relative viability (NCI-H2342; first compound 0.08 µM): 0.616
relative viability (NCI-H2342; first compound 0.253 µM): 0.685
relative viability (NCI-H2342; first compound 0.8 µM): 0.611
relative viability (NCI-H2342; first compound 2.53 µM): 0.739
relative viability (NCI-H2342; first compound 8 µM): 0.696
relative viability (SW 900; first compound 0.08 µM): 0.163
relative viability (SW 900; first compound 0.253 µM): 0.157
relative viability (SW 900; first compound 0.8 µM): 0.18
relative viability (SW 900; first compound 2.53 µM): 0.192
relative viability (SW 900; first compound 8 µM): 0.181
relative viability (NCI-H1623; first compound 0.253 µM): 0.515
relative viability (NCI-H1623; first compound 0.8 µM): 0.487
relative viability (NCI-H1623; first compound 2.53 µM): 0.521
relative viability (NCI-H1623; first compound 8 µM): 0.447

O=c1[nH]c2ccccc2n1C1CCN(CCCC(c2ccc(F)cc2)c2ccc(F)cc2)CC1 [Pimozide] + Cc1nc(Nc2ncc(C(=O)Nc3c(C)cccc3Cl)s2)cc(N2CCN(CCO)CC2)n1 [Dasatinib] (partner 0.075 µM)
relative viability (NCI-H1563; first compound 0.08 µM): 0.474
relative viability (NCI-H1563; first compound 0.253 µM): 0.429
relative viability (NCI-H1563; first compound 0.8 µM): 0.484
relative viability (NCI-H1563; first compound 2.53 µM): 0.426
relative viability (NCI-H1563; first compound 8 µM): 0.459
relative viability (NCI-H522; first compound 0.08 µM): 0.856
relative viability (NCI-H522; first compound 0.253 µM): 0.883
relative viability (NCI-H522; first compound 0.8 µM): 0.81
relative viability (NCI-H522; first compound 2.53 µM): 0.924
relative viability (NCI-H522; first compound 8 µM): 0.86
relative viability (NCI-H2342; first compound 0.08 µM): 0.33
relative viability (NCI-H2342; first compound 0.253 µM): 0.337
relative viability (NCI-H2342; first compound 0.8 µM): 0.339
relative viability (NCI-H2342; first compound 2.53 µM): 0.299
relative viability (NCI-H2342; first compound 8 µM): 0.323
relative viability (SW 900; first compound 0.08 µM): 0.51
relative viability (SW 900; first compound 0.253 µM): 0.816
relative viability (SW 900; first compound 0.8 µM): 0.37
relative viability (SW 900; first compound 2.53 µM): 0.551
relative viability (SW 900; first compound 8 µM): 0.567
relative viability (NCI-H1623; first compound 0.253 µM): 0.597
relative viability (NCI-H1623; first compound 0.8 µM): 0.536
relative viability (NCI-H1623; first compound 2.53 µM): 0.52
relative viability (NCI-H1623; first compound 8 µM): 0.56

Reference: the supplement of paper PMC10307832
